Source: US20240373891A1, “SWEETENER BLEND COMPRISING THAUMATIN AND MOGROSIDES” (NOMAD BIOSCIENCE GMBH, priority 2021, published 2024)

B1: Thaumatin II: protein of SEQ ID NO: 2, purity greater than 90%, recombinantly expressed in plants (protein, listed as Thaumatococcus daniellii)
chain: ATFEIVNRCSYTVWAAASKGDAALDAGGRQLNSGESWTINVEPGTKGGKIWARTDCYFDDSGRGICRTGDCGGLLQCKRFGRPPTTLAEFSLNQYGKDYIDISNIKGFNVPMDFSPTTRGCRGVRCAADIVGQCPAKLKAPGGGCNDACTVFQTSEYCCTTGKCGPTEYSRFFKRLCPDAFSYVLDKPTTVTCPGSSNYRVTFCPTA

What was measured:
[1] = Round table evaluation of sweetness intensity (SEV) against sucrose reference samples; type: in vivo; conditions: mean of test panelists
Description: • Round table evaluations were performed with test panelists. Equal sweet 5 SEV concentrations in neutral pH water were made for Thaumatin II (purity greater than 90%), Mogroside V, and Siamenoside I. These equal sweet solutions were also mixed at 50% of Thaumatin II and 50% Mogroside V or Siamenoside I and compared to the individual components. The components of the test compositions are described in the below tables. The mixed compositions were calculated using the Beidler mixture equation for the sweeteners. The Beidler mixture equation for sweeteners is as follows: […]
The concentration of each component in the mixture in ppm is divided by SEV (c/R) and is plotted against concentration, c. The […]. The y-intercept of the linear regression multiplied by Rmaxis the half-maximal sweetness concentration, 1/K. Rmax and 1/K are the two parameters used in the Beidler equation. Mixtures were tasted in comparison to reference samples for the panelists to determine SEV values. References samples were 3%, 4%, 5%, 6%, 7%, and 8% sucrose in neutral pH water. The test samples were served in 2 ounce soufflé cups (approximately 60 ml) coded with 3-digit codes at room temperature. A two minute wait period between samples was enforced. Water and unsalted crackers was available for the panelists to clear their palates before and during testing. Results were collected for calculating approximate SEV level of each test sample. • The test products analyzed in this experiment are described below in Table 1.

[2] = Round table qualitative assessment of quality of sweetness and undesirable attributes, scale 1-10; type: in vivo; conditions: for Off taste (lower better) / Quality of sweetness (higher better): scale of 1-10, 6 panelists; for Quality of sweetness (higher better): 5% sucrose control
Description: • Round table evaluations were performed with 6 test panelists. Equal sweet 5 SEV concentrations in neutral pH water were made for Thaumatin II (purity greater than 90%), Mogroside V, and Siamenoside I. These equal sweet solutions were also mixed at 50% of Thaumatin II and 50% Mogroside V or Siamenoside I and compared to the individual components. All solutions were coded and blinded from panelists. Panelists were asked to provide a qualitative assessment on a scale of 1-10 of the quality of sweetness (10 being the highest quality of sweetness) and undesirable attributes (10 being most undesirable) of each solution using a 5% sucrose solution as a control.

[3] = summary of Example 2, compared with sucrose

Molecule | Sweetness intensity determined, SEV ([1]; 250 ppm in neutral pH water) | Off taste (lower better) ([2]; 250 ppm in neutral pH water) | Quality of sweetness (higher better) ([2]; 250 ppm in neutral pH water) | Sweetness quality and off taste, in words ([2]; summary of Example 2) | Sweetness onset, in words [2, 3] | Sweetness intensity determined, SEV ([1]; 7 ppm in neutral pH water) | Off taste (lower better) ([2]; 7 ppm in neutral pH water) | Quality of sweetness (higher better) ([2]; 7 ppm in neutral pH water) | Sweet aftertaste, in words [2, 3]
C[C@H](CC[C@@H](O[C@@H]1O[C@H](CO[C@@H]2O[C@H](CO)[C@@H](O)[C@H](O)[C@H]2O)[C@@H](O)[C@H](O)[C@H]1O[C@@H]1O[C@H](CO)[C@@H](O)[C@H](O)[C@H]1O)C(C)(C)O)[C@H]1CC[C@@]2(C)[C@@H]3CC=C4[C@@H](CC[C@H](O[C@@H]5O[C@H](CO)[C@@H](O)[C@H](O)[C@H]5O)C4(C)C)[C@]3(C)[C@H](O)C[C@]12C [Siamenoside I] | 6.0 SEV | 2.6 | 7.8 | very mild off notes were detected | rapid | – | – | – | –
C[C@H](CC[C@@H](O[C@@H]1O[C@H](CO[C@@H]2O[C@H](CO)[C@@H](O)[C@H](O)[C@H]2O)[C@@H](O)[C@H](O)[C@H]1O[C@@H]1O[C@H](CO)[C@@H](O)[C@H](O)[C@H]1O)C(C)(C)O)[C@H]1CC[C@@]2(C)[C@@H]3CC=C4[C@@H](CC[C@H](O[C@@H]5O[C@H](CO[C@@H]6O[C@H](CO)[C@@H](O)[C@H](O)[C@H]6O)[C@@H](O)[C@H](O)[C@H]5O)C4(C)C)[C@]3(C)[C@H](O)C[C@]12C [Mogroside V] | 5.3 SEV | 3.3 | 7.5 | very mild off notes were detected | rapid | – | – | – | –
B1 | – | – | – | clean sweetness without any off taste | slightly delayed | 4.8 SEV | 4.9 | 5.3 | lasted longer
